Converted amounts (≈) assume the structure as drawn.
Columns and labels:
[1] = Solubility in phosphate buffer solution (pH 7.4) at room temperature; assay type: physicochemical; conditions: aqueous buffer
Procedure: The phosphate buffer solution was prepared by mixing 0.05M potassium dihydrogenphosphate (KH2PO4) with an aqueous solution of sodium hydroxide.

[2] = test system: mouse leukemia L-1210 cells; assay: Antitumor activity: increase of life span of mice transplanted intraperitoneally with leukemia L-1210 cells; conditions: beginning 24 hours after transplantation, observed for 30 days, CDF mice
Procedure: To assess the antitumor activity of the compounds of this invention against tumors in test animals, 1 x 10^5 mouse leukemia L-1210 cells mouse were transplanted intraperitoneally to CDF, mice. […] The survival time, in days, of the compound-treated group (T) was calculated, and that of the control group (C) receiving physiological saline solution alone was also calculated. Then, the increase of life span (T/C, %) was determined.

[3] = Dose 0.15 mg/kg/day intraperitoneally for 9 consecutive days
[4] = Dose 0.3 mg/kg/day intraperitoneally for 9 consecutive days
[5] = Dose 0.6 mg/kg/day intraperitoneally for 9 consecutive days
[6] = Dose 1.25 mg/kg/day intraperitoneally for 9 consecutive days
[7] = Dose 2.5 mg/kg/day intraperitoneally for 9 consecutive days
[8] = Dose 5 mg/kg/day intraperitoneally for 9 consecutive days

Row | Structure (SMILES) | solubility [1] [mg/mL] | Increase of life span (T/C, %) [2, 3] [%] | Increase of life span (T/C, %) [2, 4] [%] | Increase of life span (T/C, %) [2, 5] [%] | Increase of life span (T/C, %) [2, 6] [%] | Increase of life span (T/C, %) [2, 7] [%] | Increase of life span (T/C, %) [2, 8] [%]
1 | CCCCC(=O)OCC(=O)C1(O)Cc2c(O)c3c(c(O)c2C(OC2OC(C)C(O)C(O)C2F)C1)C(=O)c1c(OC)cccc1C3=O [Compound 3 of Example 1(b), 7-0-(2.6-dideoxy-2-fluoro-α-L-talopyranosyl) adriamycinone 14-0-valerate] | < 1 | 135 | 135 | >353 | >353 | >282 | > 306
2 | COc1cccc2c1C(=O)c1c(O)c3c(c(O)c1C2=O)CC(O)(C(=O)COC(=O)CCC(=O)O)CC3OC1OC(C)C(O)C(O)C1F [Compound 5 of Example 2(b), 7-0-(2,6-dideoxy-2-fluoro-a-L-talopyranosyl) adriamycinone 14-0-hemisuccinate] | 25 (≈ 37.7 mM) | – | 124 | >124 | >292 | >353 | > 353
3 | COc1cccc2c1C(=O)c1c(O)c3c(c(O)c1C2=O)CC(O)(C(=O)COC(=O)CCCC(=O)O)CC3OC1OC(C)C(O)C(O)C1F [Compound 7 of Example 3(b), 7-0-(2.6-dideoxy-2-fluoro-a-L-talopyranosyl) adriamycinone 14-0-hemiglutarate] | 26 (≈ 38.4 mM) | 129 | 129 | >235 | 282 | >294 | > 306
4 | COc1cccc2c1C(=O)c1c(O)c3c(c(O)c1C2=O)CC(O)(C(=O)COC(=O)CCCCC(=O)O)CC3OC1OC(C)C(O)C(O)C1F [Compound 9 of Example 4(b), 7-0-(2.6-dideoxy-2-fluoro-a-L-talopyranosyl) adriamycinone 14-0-hemiadipate] | 33 (≈ 47.8 mM) | 112 | 141 | 165 | 265 | >353 | >353
5 | COc1cccc2c1C(=O)c1c(O)c3c(c(O)c1C2=O)CC(O)(C(=O)COC(=O)CCCCCC(=O)O)CC3OC1OC(C)C(O)C(O)C1F [Compound 11 of Example 5(b), 7-0-(2,6-dideoxy-2-fluoro-α-L-talopyranosyl) adriamycinone 14-0-hemipimelate] | 33 (≈ 46.8 mM) | 165 | 171 | 176 | >294 | >271 | >353
6 | COc1cccc2c1C(=O)c1c(O)c3c(c(O)c1C2=O)CC(O)(C(=O)COC(=O)CCCCCCC(=O)O)CC3OC1OC(C)C(O)C(O)C1F [Compound 13 of Example 6(b), 7-0-(2,6-dideoxy-2-fluoro-α-L-talopyranosyl) adriamycinone 14-0-hemisuberate] | 30 (≈ 41.7 mM) | – | – | – | – | – | –
7 | COc1cccc2c1C(=O)c1c(O)c3c(c(O)c1C2=O)CC(O)(C(=O)CO)CC3OC1OC(C)C(O)C(O)C1F [Control, 7-O-(2,6-dideoxy-2-fluoro-α-L-talopyranosyl)adriamycinone, reference compound] | < 1 | – | – | – | – | – | –

Source: patent EP0275431A1, “Novel anthracycline derivatives, a process for preparing same and their use as medicaments” (MICROBIAL CHEMISTRY RESEARCH FOUNDATION, priority 1986, dated 1988)
